# What was measured:
# Rattus norvegicus [1] = species on record: Rattus norvegicus; type: toxicity, organism-based, Sprague-Dawley; details: in vivo, po, 24 h, route oral GAVAGE, time 1 day, […]; for MEAN CORPUSCULAR HEMOGLOBIN CONCENTRATION / MEAN CORPUSCULAR VOLUME / ABSOLUTE BASOPHIL / ABSOLUTE EOSINOPHIL / ABSOLUTE LYMPHOCYTE / ABSOLUTE MONOCYTE / BASOPHIL / EOSINOPHIL / ERYTHROCYTE COUNT / HEMATOCRIT / HEMOGLOBIN / LEUKOCYTE COUNT / LYMPHOCYTE / MEAN CORPUSCULAR HEMOGLOBIN / MONOCYTE / NEUTROPHIL / PLATELET COUNT: tissue Blood; for ALANINE AMINOTRANSFERASE / ALBUMIN / ALKALINE PHOSPHATASE / ASPARTATE AMINOTRANSFERASE / BLOOD UREA NITROGEN / CARBON DIOXIDE / CHLORIDE / CHOLESTEROL / CREATINE PHOSPHOKINASE / CREATININE / GLUCOSE / LACTATE DEHYDROGENASE / LIPASE / PHOSPHORUS / POTASSIUM / SODIUM / TOTAL BILIRUBIN / TOTAL PROTEIN / URIC ACID: tissue Plasma
# Description: DrugMatrix - Regimen: Single
# Rattus norvegicus [2] = species on record: Rattus norvegicus; experiment: DrugMatrix - Regimen: Daily Repeat; type: toxicity, organism-based, Sprague-Dawley; parameters: regimen Daily Repeat, gender Male, age 6-8 weeks; details: in vivo, po, 0 mg/kg, 72 h, route oral GAVAGE, dose level Control, time 3 day, […]
# [3] = 0 mg/kg, vehicle control, dose level Control
smiles,measurement,setting,value
CC[C@H](C)C(=O)O[C@H]1C[C@H](O)C=C2C=C[C@H](C)[C@H](CC[C@@H](O)C[C@@H](O)CC(=O)O)[C@H]21 [PRAVASTATIN],MEAN CORPUSCULAR HEMOGLOBIN CONCENTRATION,"Rattus norvegicus [1]; 0 mg/kg, dose level Control",30.5 G/DL
same,MEAN CORPUSCULAR VOLUME,"Rattus norvegicus [1]; 0 mg/kg, dose level Control",67.21 fL
same,ABSOLUTE BASOPHIL,Rattus norvegicus [1]; [3],50 cells/µL
same,ABSOLUTE EOSINOPHIL,Rattus norvegicus [1]; [3],32.5 cells/µL
same,ABSOLUTE LYMPHOCYTE,Rattus norvegicus [1]; [3],7980 cells/µL
same,ABSOLUTE MONOCYTE,Rattus norvegicus [1]; [3],170 cells/µL
same,BASOPHIL,Rattus norvegicus [1]; [3],0.58%
same,EOSINOPHIL,Rattus norvegicus [1]; [3],0.34%
same,ERYTHROCYTE COUNT,Rattus norvegicus [1]; [3],6.56 x10E6/uL
same,HEMATOCRIT,Rattus norvegicus [1]; [3],44.14%
same,HEMOGLOBIN,Rattus norvegicus [1]; [3],13.45 G/DL
same,LEUKOCYTE COUNT,Rattus norvegicus [1]; [3],9.51 x10E3/uL
same,LYMPHOCYTE,Rattus norvegicus [1]; [3],83.6%
same,MEAN CORPUSCULAR HEMOGLOBIN,Rattus norvegicus [1]; [3],20.5 pg
same,MONOCYTE,Rattus norvegicus [1]; [3],1.86%
same,NEUTROPHIL,Rattus norvegicus [1]; [3],12.7%
same,PLATELET COUNT,Rattus norvegicus [1]; [3],1240.38 x10E3/uL
same,ALANINE AMINOTRANSFERASE,Rattus norvegicus [1]; [3],47.12 u/L
same,ALBUMIN,Rattus norvegicus [1]; [3],3.59 G/DL
same,ALKALINE PHOSPHATASE,Rattus norvegicus [1]; [3],461.38 u/L
same,ASPARTATE AMINOTRANSFERASE,Rattus norvegicus [1]; [3],62.25 u/L
same,BLOOD UREA NITROGEN,Rattus norvegicus [1]; [3],12.63 mg/dL
same,CARBON DIOXIDE,Rattus norvegicus [1]; [3],39.5 mmol/L
same,CHLORIDE,Rattus norvegicus [1]; [3],105.38 MEQ/L
same,CHOLESTEROL,Rattus norvegicus [1]; [3],74.25 mg/dL
same,CREATINE PHOSPHOKINASE,Rattus norvegicus [1]; [3],282.88 u/L
same,CREATININE,Rattus norvegicus [1]; [3],0.61 mg/dL
same,GLUCOSE,Rattus norvegicus [1]; [3],176.25 mg/dL
same,LACTATE DEHYDROGENASE,Rattus norvegicus [1]; [3],190.25 u/L
same,LIPASE,Rattus norvegicus [1]; [3],28 u/L
same,PHOSPHORUS,Rattus norvegicus [1]; [3],12.68 mg/dL
same,POTASSIUM,Rattus norvegicus [1]; [3],6.6 MEQ/L
same,SODIUM,Rattus norvegicus [1]; [3],151.13 MEQ/L
same,TOTAL BILIRUBIN,Rattus norvegicus [1]; [3],0.34 mg/dL
same,TOTAL PROTEIN,Rattus norvegicus [1]; [3],6.09 G/DL
same,URIC ACID,Rattus norvegicus [1]; [3],1.06 mg/dL
same,ABSOLUTE BASOPHIL,"Rattus norvegicus [1]; 1200 mg/kg, dose level High",12.5 cells/µL
same,ABSOLUTE EOSINOPHIL,"Rattus norvegicus [1]; 1200 mg/kg, dose level High",41.3 cells/µL
same,ABSOLUTE LYMPHOCYTE,"Rattus norvegicus [1]; 1200 mg/kg, dose level High",7270 cells/µL
same,ABSOLUTE MONOCYTE,"Rattus norvegicus [1]; 1200 mg/kg, dose level High",270 cells/µL
same,BASOPHIL,"Rattus norvegicus [1]; 1200 mg/kg, dose level High",0.35%
same,EOSINOPHIL,"Rattus norvegicus [1]; 1200 mg/kg, dose level High",0.46%
same,ERYTHROCYTE COUNT,"Rattus norvegicus [1]; 1200 mg/kg, dose level High",6.38 x10E6/uL
same,HEMATOCRIT,"Rattus norvegicus [1]; 1200 mg/kg, dose level High",42.34%
same,HEMOGLOBIN,"Rattus norvegicus [1]; 1200 mg/kg, dose level High",12.95 G/DL
same,LEUKOCYTE COUNT,"Rattus norvegicus [1]; 1200 mg/kg, dose level High",9.2 x10E3/uL
same,LYMPHOCYTE,"Rattus norvegicus [1]; 1200 mg/kg, dose level High",78.89%
same,MEAN CORPUSCULAR HEMOGLOBIN,"Rattus norvegicus [1]; 1200 mg/kg, dose level High",20.29 pg
same,MEAN CORPUSCULAR HEMOGLOBIN CONCENTRATION,"Rattus norvegicus [1]; 1200 mg/kg, dose level High",30.55 G/DL
same,MEAN CORPUSCULAR VOLUME,"Rattus norvegicus [1]; 1200 mg/kg, dose level High",66.41 fL
same,MONOCYTE,"Rattus norvegicus [1]; 1200 mg/kg, dose level High",2.9%
same,NEUTROPHIL,"Rattus norvegicus [1]; 1200 mg/kg, dose level High",16.21%
same,PLATELET COUNT,"Rattus norvegicus [1]; 1200 mg/kg, dose level High",1234.38 x10E3/uL
same,ALANINE AMINOTRANSFERASE,"Rattus norvegicus [1]; 1200 mg/kg, dose level High",73.25 u/L
same,ALBUMIN,"Rattus norvegicus [1]; 1200 mg/kg, dose level High",3.64 G/DL
same,ALKALINE PHOSPHATASE,"Rattus norvegicus [1]; 1200 mg/kg, dose level High",563.12 u/L
same,ASPARTATE AMINOTRANSFERASE,"Rattus norvegicus [1]; 1200 mg/kg, dose level High",74.62 u/L
same,BLOOD UREA NITROGEN,"Rattus norvegicus [1]; 1200 mg/kg, dose level High",12.25 mg/dL
same,CARBON DIOXIDE,"Rattus norvegicus [1]; 1200 mg/kg, dose level High",36.62 mmol/L
same,CHLORIDE,"Rattus norvegicus [1]; 1200 mg/kg, dose level High",108 MEQ/L
same,CHOLESTEROL,"Rattus norvegicus [1]; 1200 mg/kg, dose level High",74.87 mg/dL
same,CREATINE PHOSPHOKINASE,"Rattus norvegicus [1]; 1200 mg/kg, dose level High",344.5 u/L
same,CREATININE,"Rattus norvegicus [1]; 1200 mg/kg, dose level High",0.67 mg/dL
same,GLUCOSE,"Rattus norvegicus [1]; 1200 mg/kg, dose level High",193.13 mg/dL
same,LACTATE DEHYDROGENASE,"Rattus norvegicus [1]; 1200 mg/kg, dose level High",126.88 u/L
same,LIPASE,"Rattus norvegicus [1]; 1200 mg/kg, dose level High",34.88 u/L
same,PHOSPHORUS,"Rattus norvegicus [1]; 1200 mg/kg, dose level High",12.5 mg/dL
same,POTASSIUM,"Rattus norvegicus [1]; 1200 mg/kg, dose level High",6.55 MEQ/L
same,SODIUM,"Rattus norvegicus [1]; 1200 mg/kg, dose level High",153.75 MEQ/L
same,TOTAL BILIRUBIN,"Rattus norvegicus [1]; 1200 mg/kg, dose level High",0.27 mg/dL
same,TOTAL PROTEIN,"Rattus norvegicus [1]; 1200 mg/kg, dose level High",6.12 G/DL
same,URIC ACID,"Rattus norvegicus [1]; 1200 mg/kg, dose level High",1.09 mg/dL
same,ABSOLUTE BASOPHIL,Rattus norvegicus [2]; tissue Blood,0 CELLS/uL
same,ABSOLUTE EOSINOPHIL,Rattus norvegicus [2]; tissue Blood,14 CELLS/uL
same,ABSOLUTE LYMPHOCYTE,Rattus norvegicus [2]; tissue Blood,11144.67 CELLS/uL
same,ABSOLUTE MONOCYTE,Rattus norvegicus [2]; tissue Blood,22.5 CELLS/uL
same,ABSOLUTE SEGMENTED NEUTROPHIL,Rattus norvegicus [2]; tissue Blood,535.5 CELLS/uL
same,BASOPHIL,Rattus norvegicus [2]; tissue Blood,0%
same,EOSINOPHIL,Rattus norvegicus [2]; tissue Blood,0.17%
same,ERYTHROCYTE COUNT,Rattus norvegicus [2]; tissue Blood,5.08 x10E6/uL
same,HEMATOCRIT,Rattus norvegicus [2]; tissue Blood,32.32%
same,HEMOGLOBIN,Rattus norvegicus [2]; tissue Blood,12.87 G/DL
same,LEUKOCYTE COUNT,Rattus norvegicus [2]; tissue Blood,11.72 x10E3/uL
same,LYMPHOCYTE,Rattus norvegicus [2]; tissue Blood,94.67%
same,MEAN CORPUSCULAR HEMOGLOBIN,Rattus norvegicus [2]; tissue Blood,25.37 pg
same,MEAN CORPUSCULAR HEMOGLOBIN CONCENTRATION,Rattus norvegicus [2]; tissue Blood,39.85 G/DL
same,MEAN CORPUSCULAR VOLUME,Rattus norvegicus [2]; tissue Blood,63.58 fL
same,MONOCYTE,Rattus norvegicus [2]; tissue Blood,0.17%
same,NEUTROPHIL,Rattus norvegicus [2]; tissue Blood,5%
same,NUCLEATED RED BLOOD CELLS,Rattus norvegicus [2]; tissue Blood,0 /100WBC
same,PLATELET COUNT,Rattus norvegicus [2]; tissue Blood,1084 x10E3/uL
same,ALANINE AMINOTRANSFERASE,Rattus norvegicus [2]; tissue Plasma,67.5 u/L
same,ALBUMIN,Rattus norvegicus [2]; tissue Plasma,4.02 G/DL

# From ChEMBL document CHEMBL3885881, “DrugMatrix”
